Tests used:
Format in all cases: in vivo
[1] = test system: corn (Zea mays L.), ZEAMX; test: Test Example 2 post-emergence (foliage treatment) herbicidal activity, ZEAMX; settings: 63 g a.i./ha
Summary of the method: (§1)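 Each species was evaluated for growth suppression by eye, 0% matching untreated and 100% meaning death, some 20 to 23 days after a single post-emergence foliar treatment applied in 500 L/ha of water carrying 0.1% (v/v) agricultural spreader.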

[2] = test system: barnyardgrass (Echinochiloa oryzicola: ECHOR); test: Test Example 3 water application herbicidal activity (paddy), ECHOR; settings: 63 g a.i./ha, water application under submerged condition at 0.5 leaf stage, visually observed 14th day after application; 0 = untreated control, 100 = complete kill
Description: (§2) Paddy field soil was put into a 1/1,000,000 ha pot and seeds of barnyardgrass (Echinochiloa oryzicola: ECHOR) and japanese bulrush (Scirpus juncoides: SCPJO) were sown and slightly covered with soil. Then the pot was left to stand still in a greenhouse in a state where the depth of flooding water was from 0.5 to 1 cm, and one day later, tubers of japanese ribbon wapato (Sagittaria pygmaea: SA GPY) were planted. Thereafter, the depth of flooding water was maintained at a level of from 3 to 4 cm, and when barnyardgrass and japanese bulrush reached a 0.5 leaf stage, an aqueous diluted solution of a wettable powder or emulsifiable concentrate having the compound of the present invention formulated in accordance with a usual formulation method, was uniformly applied under submerged condition by a pipette so that the dose of the active ingredient would be at a predetermined level. On the other hand, paddy filed soil was put into a 1/1,000,000 ha pot and puddled and leveled, and the depth of flooding water was from 3 to 4 cm. One day later, rice (Oryza sativa L.: ORYSA) of 2 leaf stage was transplanted in a depth of 3 cm. On the 4th day after the transplantation, the compound of the present invention was applied in the same manner as described above. On the 14th day after the application of the herbicide, the growth of barnyardgrass, japanese burlush and japanese ribbon wapato was visually observed and on the 21st day after the application of the herbicide, the growth of rice was visually observed, and the herbicidal effects were evaluated by growth controlling degrees (%) ranging from 0 (equivalent to the untreated control) to 100 (complete kill), whereby the results shown in Table 6, were obtained. Compound Nos. in Table 6 correspond to Compound Nos. in Table 1 and 2 given hereinbefore.

[3] = test system: crabgrass (Digitaria sanguinalis L.): DIGSA; test: Test Example 1 pre-emergence herbicidal activity, DIGSA; settings: Rate 63 g a.i./ha, visually observed 20th to 23rd day after application
Summary of the method: (§3)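 Percent growth control, rated visually 20–23 d after a pre-emergence spray applied 1 d post-sowing; compound formulated as WP or EC in 500 L/ha water at a predetermined a.i. amount.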

[4] = test system: soybean (Glycine max Merr.): GLXMA; test: Test Example 1 pre-emergence herbicidal activity, GLXMA; settings: Rate 63 g a.i./ha, visually observed 20th to 23rd day after application
Summary of the method: as §3

[5] = test system: corn (Zea mays L.): ZEAMX; test: Test Example 1 pre-emergence herbicidal activity, ZEAMX; settings: Rate 63 g a.i./ha, visually observed 20th to 23rd day after application
Summary of the method: as §3

[6] = test system: soybean (Glycine max Merr.), GLXMA; test: Test Example 2 post-emergence (foliage treatment) herbicidal activity, GLXMA; settings: 63 g a.i./ha
Summary of the method: as §1

[7] = test system: rice (Oryza sativa L.), ORYSA; test: Test Example 2 post-emergence (foliage treatment) herbicidal activity, ORYSA; settings: 63 g a.i./ha
Summary of the method: as §1

[8] = test system: japanese ribbon wapato (Sagittaria pygmaea: SA GPY); test: Test Example 3 water application herbicidal activity (paddy), SAGPY; settings: 63 g a.i./ha, water application under submerged condition, tubers planted, visually observed 14th day after application; 0 = untreated control, 100 = complete kill
Description: as §2

[9] = test system: velvetleaf (Abutilon theophrasti), ABUTH; test: Test Example 2 post-emergence (foliage treatment) herbicidal activity, ABUTH; settings: 63 g a.i./ha
Summary of the method: as §1

[10] = test system: prickly sida (Sida spinosa L.): SEDSP; test: Test Example 1 pre-emergence herbicidal activity, SIDSP; settings: Rate 63 g a.i./ha, visually observed 20th to 23rd day after application
Summary of the method: as §3

[11] = test system: prickly sida (Sida spinosa L.), SIDSP; test: Test Example 2 post-emergence (foliage treatment) herbicidal activity, SIDSP; settings: 63 g a.i./ha
Summary of the method: as §1

[12] = test system: wheat (Triticum aestivum L.): TRZAX; test: Test Example 1 pre-emergence herbicidal activity, TRZAX; settings: Rate 63 g a.i./ha, visually observed 20th to 23rd day after application
Summary of the method: as §3

[13] = test system: green foxtail (Setaria viridis L.): SETVI; test: Test Example 1 pre-emergence herbicidal activity, SETVI; settings: Rate 63 g a.i./ha, visually observed 20th to 23rd day after application
Summary of the method: as §3

[14] = test system: wheat (Triticum aestivum L.), TRZAX; test: Test Example 2 post-emergence (foliage treatment) herbicidal activity, TRZAX; settings: 63 g a.i./ha
Summary of the method: as §1

[15] = test system: japanese bulrush (Scirpus juncoides: SCPJO); test: Test Example 3 water application herbicidal activity (paddy), SCPJO; settings: 63 g a.i./ha, water application under submerged condition at 0.5 leaf stage, visually observed 14th day after application; 0 = untreated control, 100 = complete kill
Description: as §2

[16] = test system: redroot pigweed (Amaranthus retroflexus L.): AMARE; test: Test Example 1 pre-emergence herbicidal activity, AMARE; settings: Rate 63 g a.i./ha, visually observed 20th to 23rd day after application
Summary of the method: as §3

[17] = test system: barnyardgrass (Echinochloa crus-galli L.): ECHCG; test: Test Example 1 pre-emergence herbicidal activity, ECHCG; settings: Rate 63 g a.i./ha, visually observed 20th to 23rd day after application
Summary of the method: as §3

[18] = test system: velvetleaf (Abutilon theophrasti): ABUTH; test: Test Example 1 pre-emergence herbicidal activity, ABUTH; settings: Rate 63 g a.i./ha, visually observed 20th to 23rd day after application
Summary of the method: as §3

[19] = test system: rice (Oryza sativa L.): ORYSA; test: Test Example 1 pre-emergence herbicidal activity, ORYSA; settings: Rate 63 g a.i./ha, visually observed 20th to 23rd day after application
Summary of the method: as §3

[20] = test system: barnyardgrass (Echinochloa crus-galli L.), ECHCG; test: Test Example 2 post-emergence (foliage treatment) herbicidal activity, ECHCG; settings: 63 g a.i./ha
Summary of the method: as §1

[21] = test system: redroot pigweed (Amaranthus retroflexus L.), AMARE; test: Test Example 2 post-emergence (foliage treatment) herbicidal activity, AMARE; settings: 63 g a.i./ha
Summary of the method: as §1

[22] = test system: crabgrass (Digitaria sanguinalis L.), DIGSA; test: Test Example 2 post-emergence (foliage treatment) herbicidal activity, DIGSA; settings: 63 g a.i./ha
Summary of the method: as §1

[23] = test system: green foxtail (Setaria viridis L.), SETVI; test: Test Example 2 post-emergence (foliage treatment) herbicidal activity, SETVI; settings: 63 g a.i./ha
Summary of the method: as §1

COc1c(Cl)cc(F)c(-c2nn(C)c(OC(F)F)c2Cl)c1NC(=O)OCc1ccccc1 [Compound 1-71]
growth controlling degree, ZEAMX [1]: 70% | growth controlling degrees (%) ECHOR [2]: 100% | Pre-emergence Herbicidal Activity DIGSP (growth controlling degree) [3]: 100% | Pre-emergence Herbicidal Activity GLXMA (growth controlling degree) [4]: 10% | Pre-emergence Herbicidal Activity ZEAMX (growth controlling degree) [5]: 30% | growth controlling degree, GLXMA [6]: 80% | growth controlling degree, ORYSA [7]: 80% | growth controlling degrees (%) SAGPY [8]: 100% | growth controlling degree, ABUTH [9]: 100% | Pre-emergence Herbicidal Activity SIDSP (growth controlling degree) [10]: 100% | growth controlling degree, SIDSP [11]: 100% | Pre-emergence Herbicidal Activity TRZAX (growth controlling degree) [12]: 30% | Pre-emergence Herbicidal Activity SETVI (growth controlling degree) [13]: 100% | growth controlling degree, TRZAX [14]: 60% | growth controlling degrees (%) SCPJO [15]: 70% | Pre-emergence Herbicidal Activity AMARE (growth controlling degree) [16]: 100% | Pre-emergence Herbicidal Activity ECHCG (growth controlling degree) [17]: 98% | Pre-emergence Herbicidal Activity ABUTH (growth controlling degree) [18]: 100% | Pre-emergence Herbicidal Activity ORYSA (growth controlling degree) [19]: 60% | growth controlling degree, ECHCO [20]: 100%

COc1c(Cl)cc(F)c(-c2nn(C)c(OC(F)F)c2Cl)c1NC(=O)Oc1ccccc1 [Compound 1-67]
growth controlling degree, ZEAMX [1]: 30% | growth controlling degree, AMARE [21]: 100% | growth controlling degrees (%) ECHOR [2]: 100% | Pre-emergence Herbicidal Activity DIGSP (growth controlling degree) [3]: 100% | Pre-emergence Herbicidal Activity GLXMA (growth controlling degree) [4]: 0% | Pre-emergence Herbicidal Activity ZEAMX (growth controlling degree) [5]: 0% | growth controlling degree, GLXMA [6]: 70% | growth controlling degree, ORYSA [7]: 60% | growth controlling degrees (%) SAGPY [8]: 100% | growth controlling degree, ABUTH [9]: 100% | Pre-emergence Herbicidal Activity SIDSP (growth controlling degree) [10]: 80% | growth controlling degree, SIDSP [11]: 100% | growth controlling degree, DIGSP [22]: 70% | Pre-emergence Herbicidal Activity TRZAX (growth controlling degree) [12]: 10% | Pre-emergence Herbicidal Activity SETVI (growth controlling degree) [13]: 100% | growth controlling degree, TRZAX [14]: 30% | growth controlling degrees (%) SCPJO [15]: 100% | Pre-emergence Herbicidal Activity AMARE (growth controlling degree) [16]: 100% | Pre-emergence Herbicidal Activity ECHCG (growth controlling degree) [17]: 50% | Pre-emergence Herbicidal Activity ABUTH (growth controlling degree) [18]: 70% | Pre-emergence Herbicidal Activity ORYSA (growth controlling degree) [19]: 40% | growth controlling degree, ECHCO [20]: 70%

COc1c(Cl)cc(F)c(-c2nn(C)c(OC(F)F)c2Cl)c1NC(=O)OCCCl [Compound 1-68]
growth controlling degree, ZEAMX [1]: 50% | growth controlling degrees (%) ECHOR [2]: 100% | Pre-emergence Herbicidal Activity DIGSP (growth controlling degree) [3]: 100% | Pre-emergence Herbicidal Activity GLXMA (growth controlling degree) [4]: 0% | Pre-emergence Herbicidal Activity ZEAMX (growth controlling degree) [5]: 10% | growth controlling degree, GLXMA [6]: 60% | growth controlling degree, ORYSA [7]: 60% | growth controlling degrees (%) SAGPY [8]: 80% | growth controlling degree, ABUTH [9]: 100% | Pre-emergence Herbicidal Activity SIDSP (growth controlling degree) [10]: 100% | growth controlling degree, SIDSP [11]: 100% | Pre-emergence Herbicidal Activity TRZAX (growth controlling degree) [12]: 40% | growth controlling degree, SETVI [23]: 100% | Pre-emergence Herbicidal Activity SETVI (growth controlling degree) [13]: 100% | growth controlling degree, TRZAX [14]: 20% | growth controlling degrees (%) SCPJO [15]: 95% | Pre-emergence Herbicidal Activity AMARE (growth controlling degree) [16]: 100% | Pre-emergence Herbicidal Activity ECHCG (growth controlling degree) [17]: 95% | Pre-emergence Herbicidal Activity ABUTH (growth controlling degree) [18]: 100% | Pre-emergence Herbicidal Activity ORYSA (growth controlling degree) [19]: 40% | growth controlling degree, ECHCO [20]: 70%

Reference: patent US20050245399A1, “Pyrazole derivatives as herbicidal compositions containing them” (ISHIHARA SANGYO KAISHA, LTD., priority 2004, published 2005)
